Tests used:
[1] = Acute toxicity after single intraperitoneal administration; format: in vivo; details: mouse, in vivo, ip, calculated LD 50 (about)
Excerpt: (§1) Male and female mice of Swiss strain weighing from 22 to 25 g of body weight were free of pathogen specific organisms (EOPS), stemming from breeding CERJ (53860 LE GENEST (France) and acclimated for at least 8 days in the animalry of the firm.
(§2) Except where stipulated to the contrary, in the tables giving the results, 10 animals of the same sex for each dose were housed in cages of MAKROLON (Safi) of 40 cm by 25 cm filled with shaving of wood. Standard feeding for rats and mice, tablets UAR and tap water ad libitum.
(§3) The compounds were administered without previous fasting either orally (gastric tubing using a metallic oesophageous sonde) at a rate of 0.5 ml or 1 ml per 20 g of body weight of an aqueous suspension of the test compound in a 3% solution of arabic gum, or intraperitoneally at a rate of 0.5 ml or 1 ml per 20 g of body weight of the test compound suspended in an isotonic saline solution containing 3% of arabic gum.
(§4) For 6 days after the single administration and then every day for 15 days.
(§5) When necessary, the mean lethal doses (LD 50) were calculated by the method of Behrens and Karber (BK) and Miller and Tainter (MT). The latter allowing to supply with, for the threshold of probability P=0.05 a limit of confidence for the LD 50. Further calculated were the LDo i.e. DMT=maximal doses always tolerated and the LD100 i.e. DMM=minimal doses always lethal.

[2] = Acute toxicity after single oral administration; format: in vivo; details: mouse, in vivo, po
Excerpt: as §1, §2, §3, §4, §5
The compound was administered in a single dose to batches of 10 male or female mice weighing […] at a rate of 1 ml per 20 g of body weight.

[3] = test system: hyperlipidaemia / atheroma in Wistar rats on atheromatogenous regimen; assay: Biochemical testings in rats on atheromatogenous (cholesterol-rich) diet, including atheroma risk ratios; format: in vivo, rat; details: 100 mg/kg; for Cholesterol in LDL, variation in comparison to controls-Diet: LDL (estimate)
Excerpt: (§6) The method utilized for the test was that, slightly altered of Aubert D. Feraud J. C., Lacaze B., Pepino., Ponak E. et Podesta M. as described in Atherosclerosis, Vol. 20 (1974), p. 263-280 (Experimental Atherogenesis in the Wistar Rat).
(§7) Female rats of Wistar strain, free of specific pathogenic germs (EOPS) stemming from the breeding EVIC-CEBA
Mean body weight: 160-180 g at the start of the test
(§8) Diet: standard tablets UAE AO 3 enriched in cholesterol (0.5%) and in cholic acid (0.5).
15 animals per each batch and by cage in MACROLON (Safi) of 59 cm×38 cm, 5 cm filled with a litter of shavings of wood.
(§9) Diet of the animals: the animals were given the atheromatogenous regimen then while maintaining the same regimen, they were given for 4 days 250,000 IU/kg of vitamin D2 dissolved in olive oil (Sterogyl 15H). The compounds to be tested were given thereafter for 4 weeks immediately after the termination of the atheromatogenous regimen.
At the end of these studies the following tests were performed on all surviving animals.
Esterified blood cholesterol
Cholesterol in LDL (estimate)
The total score for each product was obtained by adding each individual scores and allowed the following classification
The protection against the atheromatogenous risk was evaluated using the following ratios: […]

[4] = test system: atheromatous deposits of the aorta, Wistar rats; assay: Macroscopic examination of aorta atheroma in rats on atheromatogenous diet; format: in vivo, rat; details: 100 mg/kg
Excerpt: as §6, §8
After the studies, all the animals were sacrificed by subtotal puncture of the blood in the abdominal aorta after anesthesia by intravenous sodium Pentobarbital. The hearts, livers, aortas on which the score of atheroma was determined were taken. For this purpose, the aortas were longitudinally cut, then spread to allow a whole insight of the endothelial coating from the aortic valves until the branching of the coeliac stem (lower portion of the thoracic aorta).
Aorta was from an anatomic point of view divided into two parts:
Zone 1: aortic valves-first intercostal arters
Zone 2: first intercostal arters and branching of the coeliac stem
The intensity of the atheromatous deposits was determined according to the following scores:
Score 1: Discrete (<1 mm) and few deposit
Score 2: Numerous and discrete deposits
Score 3: Numerous and marked deposits (<1 mm)
Score 4: Very marked deposits or very numerous deposits but letting some uninfiltrated areas
Score 5: Deposits on the whole epithelium
Two parameters were considered:
the intensity of the observed damages determined according to the previously-given scores.

[5] = test system: atheromatous damages of the aorta, Wistar rats; assay: Histopathological examination of atheroma in rats on atheromatogenous diet; format: in vivo, rat; details: 100 mg/kg
Excerpt: as §6, §8
The aorta, livers, hearts of the rats after sacrifice were […] with an aqueous solution of Bouin's Reagent and embedded in paraffin after washing with alcohols at increasing concentration and with toluene. The hearts were kept in blocks of paraffin for a further examination when necessary. The livers were stained using the technique of Hematein-eosin and the aorta were stained using the techniques of
orcein-light green to evidence the structural damages of the elastic strips
periodic acid, then Schiff's Reagent to locate the deposits of mucopolysaccharids […]
The intensity of the observed damages and the degree of atheromatosis were determined using one of the following scores: […]
The histopathological examinations provided individual scores which were analyzed, then reported for each batch. Three parameters were distinctly determined: […]
2. The intensity of the atheromatous damages found, determined by the previously-given scores.
3. The number of the observed atheromatous damage calculated on the basis of a batch of 15 animals each.

[6] = test system: female rats of Wistar strain; assay: Tolerance, mortality and body weight in the rat atheroma study
Excerpt: as §7, §9
The behavior and the changes in weight of the animals were surveyed every day as well as by weekly weighing.

[7] = test system: atheroma / hyperlipidaemia in Wistar rats on atheromatogenous regimen; assay: Overall hypolipaemiant and anti-atheromatous classification (summarized scores); format: in vivo, rat; details: 100 mg/kg
Excerpt: as §6, §7, §8, §9

[8] = Maximal tolerated dose on chronic administration in the rat; details: in vivo
[9] = test system: hyperlipidaemia induced by TRITON WR 1339; assay: Hyperlipidaemia induced by TRITON WR 1339 in the Wistar rat; format: in vivo; details: for Dose dependence of hypolipaemiant activity: 250 and 500 mg/kg
Method: Feeding by standard Regimen UAR A04
Drinking water ad libitum
6 animals per dose in a cage in MAKROLON of 60×40 cm filled with shavings of wood.
10 mn after: administration of the test compound
6 hours after: 1st sampling of the blood at the retro-orbital sinus
Total cholesterol by the colorimetric method of RICHMOND
Cholesterol in HDL by the colorimetric method of RICHMOND after precipitation by CONCANAVALIN A
Cholesterol in LDL by the colorimetric method of RICHMOND after precipitation by CONCANAVALIN A
Total lipids by the Zollner's sulphophosphovanillic method
Triglycerids by the BUCOLO's enzymatic method.

SMILES: CCOC(=O)C(C)(C)Oc1ccc(Cl)cc1 [Clofibrate]
- LD50 [1]: ~1800 mg/kg
- LD50 [2]: 2500 mg/kg
- Cholesterol in LDL / Cholesterol in HDL ratio (risk of atheroma) [3]: 5.35
- Cholesterol in LDL / Cholesterol in HDL, % in comparison with Controls-Diet [3]: -78.13%
- Total Blood Cholesterol / Cholesterol in HDL ratio (risk of atheroma) [3]: 6.69
- Total Blood Cholesterol / Cholesterol in HDL, % in comparison with Controls-Diet [3]: -74.91%
- Cholesterol in HDL, variation in comparison to controls-Diet ([3]; 4 weeks): +104.17%
- Esterified cholesterol, variation in comparison to controls-Diet ([3]; 4 weeks): -55.00%
- Total Blood lipids, variation in comparison to controls-Diet ([3]; 4 weeks): -35.43%
- Total blood cholesterol, variation in comparison to controls-Diet ([3]; 4 weeks): -48.75%
- Triglycerids, variation in comparison to controls-Diet ([3]; 4 weeks): -24.14%
- Cholesterol in LDL, variation in comparison to controls-Diet ([3]; 4 weeks): -55.37%
- Macroscopical examination total score [4]: 2.00
- Damaged animals, % of decrease in comparison with Controls-Diet ([4]; macroscopical): -18.18%
- Damaged animals, percentage ([4]; macroscopical): 81.82%
- Damaged animals, score in relation to Clofibrate ([4]; macroscopical): 1.00
- Intensity of the damages, % of decrease in comparison with Controls-Diet ([4]; macroscopical): -25.65%
- Intensity of the damages, score in relation to Clofibrate ([4]; macroscopical): 1.00
- Histological examination score [5]: 2.00
- Mortality ([6]; rat, in vivo): 4/15
- Classification of the anti-atheromatous action [7]: Compound of the invention>Fenofibrate>Clofibrate
- MTD [8]: ~100 mg/kg

SMILES: CC(C)OC(=O)C(C)(C)Oc1ccc(C(=O)c2ccc(Cl)cc2)cc1 [Fenclofibrate]
- Atheromatous risk total score [3]: 0.23
- Cholesterol in LDL / Cholesterol in HDL, % in comparison with Controls-Diet [3]: -12.35%
- Cholesterol in LDL / Cholesterol in HDL, score in comparison with Clofibrate [3]: 0.16
- Total Blood Cholesterol / Cholesterol in HDL, % in comparison with Controls-Diet [3]: -5.06%
- Total Blood Cholesterol / Cholesterol in HDL, score in comparison with Clofibrate (=1) [3]: 0.07
- Cholesterol in HDL score (Clofibrate=1) ([3]; 4 weeks): 0.04
- Cholesterol in HDL, variation in comparison to controls-Diet ([3]; 4 weeks): +4.17%
- Cholesterol in LDL score (Clofibrate=1) ([3]; 4 weeks): 0.16
- Esterified cholesterol score (Clofibrate=1) ([3]; 4 weeks): 0.40
- Esterified cholesterol, variation in comparison to controls-Diet ([3]; 4 weeks): -22.08%
- Total Blood lipids score (Clofibrate=1) ([3]; 4 weeks): 0.29
- Total Blood lipids, variation in comparison to controls-Diet ([3]; 4 weeks): -10.31%
- Total blood cholesterol score (Clofibrate=1) ([3]; 4 weeks): 0.02
- Total blood cholesterol, variation in comparison to controls-Diet ([3]; 4 weeks): -1.09%
- Triglycerids, variation in comparison to controls-Diet ([3]; 4 weeks): -25.86%
- Cholesterol in LDL, variation in comparison to controls-Diet ([3]; 4 weeks): -8.69%
- Biochemistry total score ([3]; sum of individual scores, Clofibrate=1 each): 1.98
- Macroscopical examination total score [4]: 2.17
- Damaged animals, % of decrease in comparison with Controls-Diet ([4]; macroscopical): -16.67%
- Damaged animals, percentage ([4]; macroscopical): 83.33%
- Damaged animals, score in relation to Clofibrate ([4]; macroscopical): 0.92
- Intensity of the damages, % of decrease in comparison with Controls-Diet ([4]; macroscopical): -31.97%
- Intensity of the damages, score in relation to Clofibrate ([4]; macroscopical): 1.25
- Intensity of the damages, quotation ([4]; macroscopical, scores 0 to 5): 1.83
- Histological examination score [5]: 2.13
- Mortality ([6]; 100 mg/kg, 4 weeks, atheromatogenous regimen (batch No. 2: 2/15)): 3/15
- Classification of the anti-atheromatous action [7]: Compound of the invention>Fenofibrate>Clofibrate
- Total Score (biochemistry, atheromatous risk, macroscopical, histological) [7]: 6.51

SMILES: CC(C)OC(=O)C(C)(C)Oc1ccc(C(=O)c2ccc(Cl)cc2)cc1 [Procetofene, reference compound]
- Dose dependence of hypolipaemiant activity ([9]; 6 hours after TRITON WR 1339): directly proportional to the doses
- Dose dependence of hypolipaemiant activity ([9]; 24 hours after TRITON WR 1339): inversely proportional to the dose
- Cholesterol HDL/LDL score vs 250 mg/kg Procetofene ([9]; 6 hours after, 250 mg/kg oral): 1.00
- Total Score vs 250 mg/kg Procetofene ([9]; 6 hours after, 250 mg/kg oral): 4.00
- Total cholesterol score vs 250 mg/kg Procetofene ([9]; 6 hours after, 250 mg/kg oral): 1.00
- Total lipids score vs 250 mg/kg Procetofene ([9]; 6 hours after, 250 mg/kg oral): 1.00
- Triglycerids score vs 250 mg/kg Procetofene ([9]; 6 hours after, 250 mg/kg oral): 1.00
- Cholesterol HDL/LDL score vs 250 mg/kg Procetofene ([9]; 6 hours after, 500 mg/kg oral): 1.53
- Total Score vs 250 mg/kg Procetofene ([9]; 6 hours after, 500 mg/kg oral): 5.12
- Total cholesterol score vs 250 mg/kg Procetofene ([9]; 6 hours after, 500 mg/kg oral): 1.65
- Total lipids score vs 250 mg/kg Procetofene ([9]; 6 hours after, 500 mg/kg oral): 0.65
- Triglycerids score vs 250 mg/kg Procetofene ([9]; 6 hours after, 500 mg/kg oral): 1.29
- Cholesterol HDL/LDL score vs 250 mg/kg Procetofene ([9]; 24 hours after, 250 mg/kg oral): 1.00
- Total Score vs 250 mg/kg Procetofene ([9]; 24 hours after, 250 mg/kg oral): 4.00
- Total cholesterol score vs 250 mg/kg Procetofene ([9]; 24 hours after, 250 mg/kg oral): 1.00
- Total lipids score vs 250 mg/kg Procetofene ([9]; 24 hours after, 250 mg/kg oral): 1.00
- Triglycerids score vs 250 mg/kg Procetofene ([9]; 24 hours after, 250 mg/kg oral): 1.00
- Cholesterol HDL/LDL score vs 250 mg/kg Procetofene ([9]; 24 hours after, 500 mg/kg oral): 0.30
- Total Score vs 250 mg/kg Procetofene ([9]; 24 hours after, 500 mg/kg oral): 3.33
- Total lipids score vs 250 mg/kg Procetofene ([9]; 24 hours after, 500 mg/kg oral): 0.85
- Triglycerids score vs 250 mg/kg Procetofene ([9]; 24 hours after, 500 mg/kg oral): 1.01
- Antihyperlipaemiant activity, compound vs Procetofene ([9]; same doses (250 and 500 mg/kg)): antihyperlipaemiant activity about equal

Reference: US4816490A, “Novel therapeutic use of a derivative of indane dione and the pharmaceutical compositions intended for this use” (priority 1987, dated 1989)
